In patent publication US20070072815A1, “Methods and kits to increase the efficiency of oligonucleotide-directed nucleic acid sequence alteration” (priority 2004, published 2007):
“Also recorded” adds a separate entry of the source.

Assays:
DLD-1-1 cells = test: Cell viability / cell death by propidium iodide FACS; conditions: HU or VP16 prior to electroporation, propidium iodide
Description: Flow cytometry analysis: eGFP fluorescence of corrected cells is measured by a Becton Dickinson FACSCalibur™ flow cytometer (Becton Dickinson, Rutherford, N.J.). Cells are harvested 48 hrs after electroporation and resuspended in FACS buffer (0.5% BSA, 2 mM EDTA, 2 μg/ml propidium iodide in PBS). More specifically, the program is set for the appropriate cell size (forward scatter versus side scatter) and the population of single-cells is gated for analysis. Using the negative control (minus PI, minus GFP) the background fluorescence was set by positioning the cells in the 10^1 decade of the dot plot by adjusting the voltage for FL1 (GFP) and FL2 (PI). The composition is then set for multi-fluorochrome experiments using a GFP control sample containing no PI and increasing the compensation to bring the signal toward the FL1 parameter. Finally, the last control, PI and no GFP is used to increase the compensation to bring the signal toward the FL2 parameter. Samples of 50,000 cells each are analyzed and those cells being GFP positive and PI negative are scored as corrected cells.
For cells that were not previously treated with caffeine, caffeine is added to the media to a final concentration of 4 mM in the 60 mM dish immediately following electroporation (the “recovery phase”). For cells that were pre-treated with caffeine, there is no addition of caffeine during the recovery phase. After 24 hrs of recovery, the media is changed and caffeine (4 mM final concentration) is added back to the culture. After 48 hrs of recovery, the samples are read by FACS: eGFP fluorescence reflects gene alteration (correction), and propidium iodide (PI) staining reflects cellular viability.

DNA of DLD-1-1 cells = test: Pulsed-field gel electrophoresis of DNA damage (double strand breaks); format: cell-based; conditions: HU 0.3, 1 or 5 mM; VP16 0.5, 1 or 3 μM; 24 hours
Description: The cells are released by trypsinization and melted in the agarose inserts. The agarose inserts are incubated in 0.5M EDTA—1% N-laurosylsarcosine—proteinase K (1 mg/ml) at 50° C. for 48 hrs and then washed four times in TE buffer prior to loading on a 1% agarose gel (Pulse-Field Certified Agarose, Bio-Rad, Hercules, Calif.) and DNA separation by pulsed-field gel electrophoresis is carried out for 24 hrs (Bio-Rad, 120° field angle, 60 to 240s switch time, 4 V/cm). The gel is subsequently stained with ethidium bromide and analyzed with AlphaImager™ 2200. (Alpha Innotech Corp., San Leandro, Calif.).
The effects of MMS and bleomycin on oligonucleotide-directed gene alteration are determined as follows. DLD-1-1 cells are seeded in 100 mm dishes at 2×10^6 cells per plate and immediately treated with 0.2 μM MMS or 0.75 μM bleomycin. The cells are then grown for 24 hours, until approximately 50% confluent, and washed twice with PBS. A portion of each population of cells is removed for DNA analysis by pulsed-field electrophoresis, as described in Example 1. The correcting oligo EGFP/72NT (10 μg) is then added and the cells are electroporated as in Example 3. Cells are then analyzed to determine the percentage of cells with corrected eGFP genes as described in Example 3.

[1] = test system: HYGeGFP fusion gene target in Saccharomyces cerevisiae strain LSY678; test: Hygromycin resistance gene correction in yeast LSY678; format: cell-based; conditions: synchronized with alpha factor and released into HU, specific time after release from G1/S border
Description: An alternative model system to measure oligonucleotide-directed sequence alteration has been developed in the yeast Saccharomyces cerevisiae strain LSY678 (MATa leu 2-3, 112 trpl-1 ura 3-1 his 3-1, 15 ade2-1 can 1-100). The strain has integrated an HYGeGFP fusion gene target containing a single point mutation at base pair 137 in the coding region of the hygromycin gene, rendering it unable to confer resistance to the antibiotic. Oligonucleotide-directed sequence alteration can repair the mutation and restore hygromycin resistance. For example, in one experiment, LSY678 cells are synchronized with alpha factor and released, or synchronized with alpha factor and released into hydroxyurea (HU), prior to electroporation with a correcting oligonucleotide. The combination of alpha factor and HU increased correction efficiency 25-fold as compared to cells treated with neither agent, but only when oligonucleotide treatment is performed at a specific period of time after release from the G1/S border. See also U.S. patent application publication no. 20030207451.

Q: How did the effect on viability (DLD-1-1 cells) turn out when `NC(=O)NO` [HU, hydroxyurea] was run?
A: viability is moderately reduced

Q: And the “DNA double strand breaks” value (DNA of DLD-1-1 cells)?
A: induce DSBs; also recorded: progressive increase in the amount of damaged DNA

Q: And the “increase of correction efficiency compared to cells treated with neither agent” value [1]?
A: 25 fold
